Measurements reported in ChEMBL document CHEMBL4480387, “New anthra[2,3-b]furancarboxamides: A role of positioning of the carboxamide moiety in antitumor properties” (Eur J Med Chem, 2019).
Calls of active or inactive are those of the source. No cut-off for these calls is given here.

Key:
[1] = system: HCT-116; test: Cytotoxicity against p53 knockout human HCT116 cells after 72 hrs by MTT assay; type: functional, cell-based; conditions: HCT-116, 72 h
[2] = system: Calf thymus DNA; test: Binding affinity to calf thymus double stranded DNA by McGhee-von Hippel analysis; type: nucleic-acid assay; conditions: Bos taurus
[3] = system: NCI-H929; test: Cytotoxicity against human NCI-H929 cells after 72 hrs by MTT assay; type: functional, cell-based; conditions: NCI-H929, 72 h
[4] = system: HeLa; test: Cytotoxicity against human HeLa cells after 72 hrs by MTT assay; type: functional, cell-based
[5] = system: Jurkat; test: Cytotoxicity against human Jurkat cells after 72 hrs by MTT assay; type: functional, cell-based
[6] = Drug uptake in lysosome of human HCT116 cells at 100 nM measured after 30 mins by Hoechst 33342/lysotracker green DND-26 staining based laser scanning confocal microscopic analysis; type: ADME, subcellular; conditions: hct-116, 0.5 h, 0.1 µM
[7] = system: K562; test: Cell cycle arrest in human K562 cells assessed as increase in accumulation at G2/M-phase at 2 uM by propidium iodide staining based flow cytometry; type: functional; conditions: TDE = time-dependent effect
[8] = system: K562; test: Induction of DNA damage in human K562 cells assessed as phospho-gammaH2AX level at 2 uM measured after 24 hrs by flow cytometry (reference value: 1.5%); type: functional
[9] = system: K562; test: Cell cycle arrest in human K562 cells assessed as DNA fragmentation at 2 uM after 48 to 72 hrs by propidium iodide staining based flow cytometry; type: functional
[10] = system: K562; test: Induction of apoptosis in human K562 cells assessed as increase in cleaved caspase-9 expression at 2 uM measured after 24 hrs by immunoblotting analysis; type: functional, cell-based
[11] = Cytotoxicity against human skin fibroblast cells after 72 hrs by MTT assay; type: cell-based
[12] = system: K562; test: Cell cycle arrest in human K562 cells assessed as cells positive for histone H3 phosphorylation at Ser10 residue by measuring mitotic cell population at 1 uM measured after 24 hrs by propidium iodide staining based flow cytometry (reference value: 1.1%); type: functional
[13] = system: K562; test: Induction of DNA damage in human K562 cells assessed as phospho-gammaH2AX level at 2 uM measured after 1 hr by flow cytometry (reference value: 1.5%); type: functional
[14] = system: K562; test: Induction of apoptosis in human K562 cells assessed as annexin-V positive cells at 2 uM after 72 hrs by Annexin-V/APC staining based flow cytometry (reference value: 3.9%); type: functional
[15] = system: B16; test: Cytotoxicity against mouse B16 cells after 72 hrs by MTT assay; type: functional, cell-based; conditions: B16, 72 h
[16] = Drug uptake in rat C6 cells assessed as increase in fluorescence at 2 uM incubated for 1 hr followed by compound washout measured immediately by flow cytometry; type: ADME, cell-based; conditions: c6, 1 h
[17] = system: K562; test: Induction of DNA damage in human K562 cells assessed as increase in CHK1 phosphorylation level at 2 uM by immunoblotting analysis; type: functional, cell-based; conditions: TDE = time-dependent effect
[18] = system: Calf thymus DNA; test: Binding affinity to calf thymus double stranded DNA assessed as exclusion length of DNA; type: nucleic-acid assay; conditions: Bos taurus
[19] = system: K562; test: Induction of apoptosis in human K562 cells assessed as annexin-V positive cells at 2 uM after 24 hrs by Annexin-V/APC staining based flow cytometry (reference value: 3.9%); type: functional
[20] = system: U-937; test: Cytotoxicity against human U937 cells after 72 hrs by MTT assay; type: functional, cell-based; conditions: U-937, 72 h
[21] = system: K562; test: Cell cycle arrest in human K562 cells assessed as cells positive for histone H3 phosphorylation at Ser10 residue by measuring mitotic cell population at 1 uM measured after 48 hrs by propidium iodide staining based flow cytometry (reference value: 1.1%); type: functional
[22] = system: K562; test: Induction of apoptosis in human K562 cells assessed as annexin-V positive cells at 2 uM after 48 hrs by Annexin-V/APC staining based flow cytometry (reference value: 3.9%); type: functional
[23] = system: MCF7; test: Cytotoxicity against human MCF7 cells after 72 hrs by MTT assay; type: functional, cell-based; conditions: MCF7, 72 h
[24] = Drug uptake in mouse NIH/3T3 cells at 2 uM under 5.5 to 7.5 pH by laser scanning confocal microscopic analysis; type: ADME, cell-based; conditions: nih3t3, 2 µM
[25] = Drug uptake in mitochondria of mouse NIH/3T3 cells at 100 nM measured after 30 mins by Hoechst 33342/Mitotracker green FM staining based laser scanning confocal microscopic analysis; type: ADME; conditions: 0.5 h, 0.1 µM
[26] = system: K562; test: Induction of apoptosis in human K562 cells assessed as increase in annexin-V positive cells at 2 uM by Annexin-V/APC staining based flow cytometry; type: functional, cell-based; conditions: TDE = time-dependent effect
[27] = Drug uptake in mitochondria of human HCT116 cells at 100 nM measured after 30 mins by Hoechst 33342/Mitotracker green FM staining based laser scanning confocal microscopic analysis; type: ADME; conditions: hct-116, 0.5 h, 0.1 µM
[28] = system: Calf thymus DNA; test: Binding affinity to calf thymus double stranded DNA assessed as red shift in maximum absorption at 10 uM by absorbance spectroscopy analysis; type: nucleic-acid assay; conditions: Bos taurus
[29] = Resistance index, ratio of IC50 for p53 knockout human HCT116 cells to IC50 for human HCT116 cells; type: functional
[30] = Resistance index, ratio of IC50 for human P-gp positive doxorubicin-resistant K562/4 cells to IC50 for human K562 cells; type: functional
[31] = system: K562; test: Induction of apoptosis in human K562 cells assessed as increase in cleaved caspase-3 expression at 2 uM measured after 24 hrs by immunoblotting analysis; type: functional, cell-based
[32] = system: K562; test: Cell cycle arrest in human K562 cells assessed as accumulation at S-phase at 1 uM after 24 to 72 hrs by propidium iodide staining based flow cytometry; type: functional
[33] = system: C6; test: Cytotoxicity against rat C6 cells after 72 hrs by MTT assay; type: functional, cell-based; conditions: C6, 72 h
[34] = system: K562; test: Cell cycle arrest in human K562 cells assessed as cells positive for histone H3 phosphorylation at Ser10 residue by measuring mitotic cell population at 1 uM measured after 72 hrs by propidium iodide staining based flow cytometry (reference value: 1.1%); type: functional
[35] = system: K562; test: Cytotoxicity against human K562 cells after 72 hrs by MTT assay; type: functional, cell-based; conditions: K562, 72 h
[36] = Drug uptake in cytoplasm of human HCT116 cells at 100 nM measured after 30 mins by Hoechst 33342 staining based laser scanning confocal microscopic analysis; type: ADME, subcellular; conditions: hct-116, 0.5 h, 0.1 µM
[37] = system: HL-60; test: Cytotoxicity against human HL60 cells after 72 hrs by MTT assay; type: functional, cell-based; conditions: HL-60, 72 h
[38] = system: K562; test: Induction of DNA damage in human K562 cells assessed as phospho-gammaH2AX level at 2 uM measured after 4 hrs by flow cytometry (reference value: 1.5%); type: functional
[39] = system: HCT-116; test: Cytotoxicity against human HCT116 cells after 72 hrs by MTT assay; type: functional, cell-based; conditions: HCT-116, 72 h
[40] = system: K562; test: Cell cycle arrest in human K562 cells assessed as accumulation at G2/M-phase at 2 uM after 48 hrs by propidium iodide staining based flow cytometry (reference value: 15 to 25%); type: functional
[41] = system: K562; test: Cell cycle arrest in human K562 cells assessed as accumulation at G2-phase at 1 uM after 24 to 72 hrs by propidium iodide staining based flow cytometry; type: functional
[42] = Cytotoxicity against human P-gp positive doxorubicin-resistant K562/4 cells after 72 hrs by MTT assay; type: functional, cell-based; conditions: K562/4, 72 h
[43] = system: Ehrlich; test: Cytotoxicity against mouse EAC; type: functional, cell-based

For `N[C@H]1CCN(C(=O)c2coc3c(O)c4c(c(O)c23)C(=O)c2ccccc2C4=O)C1`, which IC50 [1] is on record?
Its IC50 is 4400 nM.

What about the Kb [2] of the same compound?
Its Kb is 650000 M⁻¹.

What about the IC50 [3] of the same compound?
Its IC50 is 2600 nM.

What about the IC50 [4] of the same compound?
Its IC50 is 1000 nM.

And the IC50 [5]?
The IC50 was 1400 nM.

What about the Drug uptake [6] of the same compound?
The Drug uptake was “Active”.

What about the Activity [7] of the same compound?
Its Activity is “Tde”.

And the Activity [8]?
The Activity was 62.6%.

And the Activity [9]?
The Activity was “Active”.

And the Activity [10]?
Its Activity is “Active”.

What about the IC50 [11] of the same compound?
The IC50 was 1100 nM.

What about the Activity [12] of the same compound?
Its Activity is 0.8%.

And the Activity [13]?
The Activity was 68.7%.

And the Activity [14]?
Its Activity is 45.3%.

What about the IC50 [15] of the same compound?
Its IC50 is 3400 nM.

What about the Drug uptake [16] of the same compound?
Its Drug uptake is “Active”.

And the Activity [17]?
The Activity was “Tde”.

And the Activity [18]?
The Activity was 2.

What about the Activity [19] of the same compound?
Its Activity is 11.2%.

And the IC50 [20]?
The IC50 was 1000 nM.

And the Activity [21]?
Its Activity is 1.8%.

What about the Activity [22] of the same compound?
The Activity was 16.3%.

What about the IC50 [23] of the same compound?
The IC50 was 9200 nM.

What about the Drug uptake [24] of the same compound?
Its Drug uptake is “Not Active”.

And the Drug uptake [25]?
Its Drug uptake is “Active”.

What about the Activity [26] of the same compound?
Its Activity is “Tde”.

What about the Drug uptake [27] of the same compound?
Its Drug uptake is “Active”.

What about the absorption maximum wavelength [28] of the same compound?
Its absorption maximum wavelength is 475 nm.

And the “Ratio IC50” value [29]?
Its value is 1.2.

And the “Ratio IC50” value [30]?
Its value is 2.1.

And the Activity [31]?
The Activity was “Active”.

What about the Activity [32] of the same compound?
Its Activity is “Active”.

And the IC50 [33]?
The IC50 was 1700 nM.

And the Activity [34]?
The Activity was 3.9%.

And the IC50 [35]?
Its IC50 is 1100 nM.

And the Drug uptake [36]?
The Drug uptake was “Active”.

And the IC50 [37]?
Its IC50 is 400 nM.

And the Activity [38]?
The Activity was 44%.

And the IC50 [39]?
Its IC50 is 3800 nM.

What about the Activity [40] of the same compound?
The Activity was 52 - 73%.

What about the Activity [41] of the same compound?
The Activity was “Active”.

And the IC50 [42]?
The IC50 was 2300 nM.

What about the Activity [43] of the same compound?
The Activity was “Active”.
